# Reference: patent EP0942906B1, “COMPOUNDS USEFUL FOR INHIBITION OF FARNESYL PROTEIN TRANSFERASE” (SCHERING CORPORATION, priority 1996, dated 1998)
# Read-outs that look alike come from different tables or passages of the source.
# How the values were obtained:
# Settings in all cases: range stated for the listed group of compounds
# Human tumor cells = assay: Soft Agar Assay (anchorage-independent growth, colony count after MTT staining); format: cell-based
# Protocol: Anchorage-independent growth is a characteristic of tumorigenic cell lines. Human tumor cells are suspended in growth medium containing 0.3% agarose and an indicated concentration of a farnesyl transferase inhibitor. The solution is overlayed onto growth medium solidified with 0.6% agarose containing the same concentration of farnesyl transferase inhibitor as the top layer. After the top layer is solidified, plates are incubated for 10-16 days at 37°C under 5% CO2 to allow colony outgrowth. After incubation, the colonies are stained by overlaying the agar with a solution of MTT (3-[4,5-dimethylthiazol-2-yl]-2.5-diphenyltetrazolium bromide, Thiazolyl blue) (1 mg/mL in PBS). Colonies can be counted and the IC50's can be determined.
# COS Cell = COS Cell IC50 (Cell-Based Assay, procedure of WO 95/10516)
# Protocol: (§1) FPT IC50 (inhibition of farnesyl protein transferase, in vitro enzyme assay) and COS Cell IC50 (Cell-Based Assay) were determined following the assay procedures described in WO 95/10516, published April 20, 1995. GGPT IC50 (inhibition of geranylgeranyl protein transferase, in vitro enzyme assay), Cell Mat Assay, and anti-tumor activity (in vivo anti-tumor studies) could be determined by the assay procedures described in WO 95/10516.
# [1] = biological target: farnesyl protein transferase (Homo sapiens, UniProt P49354+P49356); assay: FPT IC50, inhibition of farnesyl protein transferase, in vitro enzyme assay (procedure of WO 95/10516); format: biochemical
# Protocol: as §1
# [2] = ras form not stated, read-out: FPT IC50
# [3] = H-ras, read-out: FPT IC50 (H-ras)
# [4] = k-ras, read-out: FPT IC50 (k-ras)
# farnesyl protein transferase, sequence (P49356 whole entry, one chain of several): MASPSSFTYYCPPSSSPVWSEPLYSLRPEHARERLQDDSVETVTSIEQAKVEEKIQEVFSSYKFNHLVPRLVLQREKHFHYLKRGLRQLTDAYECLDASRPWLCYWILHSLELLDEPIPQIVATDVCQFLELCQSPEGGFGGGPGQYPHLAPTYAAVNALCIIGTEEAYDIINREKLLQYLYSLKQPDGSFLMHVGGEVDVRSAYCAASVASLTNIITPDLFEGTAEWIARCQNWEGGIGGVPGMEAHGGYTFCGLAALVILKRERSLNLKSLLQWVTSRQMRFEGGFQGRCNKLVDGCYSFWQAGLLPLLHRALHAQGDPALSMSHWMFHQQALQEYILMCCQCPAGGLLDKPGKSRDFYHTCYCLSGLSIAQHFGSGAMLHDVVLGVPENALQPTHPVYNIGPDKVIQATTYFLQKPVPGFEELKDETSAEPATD
SMILES,IC50 (Human tumor cells) [µM],"IC50 [1, 2] [µM]","IC50 [1, 4] [µM]",IC50 (COS Cell; read-out: Cos Cell) [µM],"IC50 [1, 3] [µM]",IC50 (COS Cell; read-out: Cos Cell IC50) [µM]
CN(C)C(=O)C(=O)N1CCC(CC(=O)N2CCC([C@H]3c4ncc(Br)cc4CCc4cc(Cl)cc(Br)c43)CC2)CC1 [Compound 33.0-B],≥ 0.0195,0.0007 to 0.018,,≥ 0.009,,
CC(C)=NOCCC(=O)N1CCC(CC(=O)N2CCC([C@H]3c4ncc(Br)cc4CCc4cc(Cl)cc(Br)c43)CC2)CC1 [Compound 23.0-B],≥ 0.0195,0.0007 to 0.018,,≥ 0.009,0.002 to 0.0317,
NCCCC(=O)N1CCC(CC(=O)N2CCC([C@H]3c4ncc(Br)cc4CCc4cc(Cl)cc(Br)c43)CC2)CC1 [Compound 90.0-B],,0.0007 to 0.018,,,,
O=C(C(=O)N1CCC(CC(=O)N2CCC([C@H]3c4ncc(Br)cc4CCc4cc(Cl)cc(Br)c43)CC2)CC1)c1cccs1 [Compound 81.0-B],≥ 0.0195,0.0007 to 0.018,,≥ 0.009,,
O=C(Cc1cccs1)N1CCC(CC(=O)N2CCC([C@H]3c4ncc(Br)cc4CCc4cc(Cl)cc(Br)c43)CC2)CC1 [Compound 82.0-B],≥ 0.0195,0.0007 to 0.018,,≥ 0.009,,
O=C(CC1CCN(C(=O)Cn2cccc2)CC1)N1CCC([C@H]2c3ncc(Br)cc3CCc3cc(Cl)cc(Br)c32)CC1 [Compound 34.0-B],≥ 0.0195,0.0007 to 0.018,,≥ 0.009,,
"O=C(CC1CCN(C(=O)CN2CCS(=O)(=O)CC2)CC1)N1CCC(C2c3ncc(Br)cc3CCc3cc(Cl)cc(Br)c32)CC1 (single isomer, unassigned; (+)) [Compound 14.1]",,,,,0.002 to 0.0317,0.01 to 0.7
O=C(CC1CCN(C(=O)Cn2cncn2)CC1)N1CCC([C@H]2c3ncc(Br)cc3CCc3cc(Cl)cc(Br)c32)CC1 [Compound 57.0-B],≥ 0.0195,0.0007 to 0.018,,≥ 0.009,,
O=C(CC1CCOCC1)N1CCC(CC(=O)N2CCC([C@H]3c4ncc(Br)cc4CCc4cc(Cl)cc(Br)c43)CC2)CC1 [Compound 85.0-B],≥ 0.0195,0.0007 to 0.018,,≥ 0.009,,
O=C(CC1CCN(C(=O)Cn2cnc3ccccc32)CC1)N1CCC([C@H]2c3ncc(Br)cc3CCc3cc(Cl)cc(Br)c32)CC1 [Compound 12.0-B],≥ 0.0195,0.0007 to 0.018,0.0145 to 0.0712,≥ 0.009,,
C[C@@H](NC(=O)OC(C)(C)C)C(=O)N1CCC(CC(=O)N2CCC([C@H]3c4ncc(Br)cc4CCc4cc(Cl)cc(Br)c43)CC2)CC1 [Compound 4.0],,,0.0145 to 0.0712,,0.002 to 0.0317,
O=C(CC1CCN(C(=O)CN2CCOCC2)CC1)N1CCC([C@H]2c3ncc(Br)cc3CCc3cc(Cl)cc(Br)c32)CC1 [Compound 13.0],,,,,0.002 to 0.0317,0.01 to 0.7
O=C(CC1CCN(C(=O)CN2CCCCC2)CC1)N1CCC([C@H]2c3ncc(Br)cc3CCc3cc(Cl)cc(Br)c32)CC1 [Compound 75.0-B],≥ 0.0195,0.0007 to 0.018,,≥ 0.009,,
COC(=O)CCCCC(=O)N1CCC(CC(=O)N2CCC([C@H]3c4ncc(Br)cc4CCc4cc(Cl)cc(Br)c43)CC2)CC1 [Compound 101.0-B],≥ 0.0195,0.0007 to 0.018,,≥ 0.009,,
O=C(O)C[C@H](O)CC(=O)N1CCC(CC(=O)N2CCC([C@H]3c4ncc(Br)cc4CCc4cc(Cl)cc(Br)c43)CC2)CC1 [Compound 74.0-B],≥ 0.0195,0.0007 to 0.018,,≥ 0.009,,
CCOC(=O)c1ncn(CC(=O)N2CCC(CC(=O)N3CCC([C@H]4c5ncc(Br)cc5CCc5cc(Cl)cc(Br)c54)CC3)CC2)c1C [Compound 54.0-B],≥ 0.0195,0.0007 to 0.018,,≥ 0.009,,
O=C(NCC(=O)N1CCC(CC(=O)N2CCC([C@H]3c4ncc(Br)cc4CCc4cc(Cl)cc(Br)c43)CC2)CC1)c1ccccc1 [Compound 12.0],,,,,0.002 to 0.0317,0.01 to 0.7
O=C(Cc1c[nH]cn1)N1CCC(CC(=O)N2CCC([C@H]3c4ncc(Br)cc4CCc4cc(Cl)cc(Br)c43)CC2)CC1 [Compound 30.0-B],≥ 0.0195,0.0007 to 0.018,,≥ 0.009,,
CC(C)=NOCC(=O)N1CCC(CC(=O)N2CCC([C@H]3c4ncc(Br)cc4CCc4cc(Cl)cc(Br)c43)CC2)CC1 [Compound 9.0-B],≥ 0.0195,0.0007 to 0.018,0.0145 to 0.0712,≥ 0.009,,

SMILES,IC50 (Human tumor cells) [µM],"IC50 [1, 2] [µM]","IC50 [1, 4] [µM]",IC50 (COS Cell; read-out: Cos Cell) [µM],"IC50 [1, 3] [µM]",IC50 (COS Cell; read-out: Cos Cell IC50) [µM]
C[C@H](NC(=O)OC(C)(C)C)C(=O)N1CCC(CC(=O)N2CCC([C@H]3c4ncc(Br)cc4CCc4cc(Cl)cc(Br)c43)CC2)CC1 [Compound 3.0],,,0.0145 to 0.0712,,0.002 to 0.0317,
COC(=O)CCCCCC(=O)N1CCC(CC(=O)N2CCC([C@H]3c4ncc(Br)cc4CCc4cc(Cl)cc(Br)c43)CC2)CC1 [Compound 68.0-B],≥ 0.0195,0.0007 to 0.018,,≥ 0.009,,
CC(C)(C)OC(=O)NCCC(=O)N1CCC(CC(=O)N2CCC([C@H]3c4ncc(Br)cc4CCc4cc(Cl)cc(Br)c43)CC2)CC1 [Compound 86.0-B],,0.0007 to 0.018,,,,
CCOC(=O)CC(=O)N1CCC(CC(=O)N2CCC(C3c4ncc(Br)cc4CCc4cc(Cl)cc(Br)c43)CC2)CC1 (stereo not shown) [Compound 15.3],,,,,0.002 to 0.0317,0.01 to 0.7
O=C(CC1CCN(C(=O)CC2CCCO2)CC1)N1CCC([C@H]2c3ncc(Br)cc3CCc3cc(Cl)cc(Br)c32)CC1 (stereo partly shown) [Compound 114.4-B],≥ 0.0195,0.0007 to 0.018,,≥ 0.009,,
O=C(CC1CCN(C(=O)CC2COCCO2)CC1)N1CCC([C@H]2c3ncc(Br)cc3CCc3cc(Cl)cc(Br)c32)CC1 (stereo partly shown) [Compound 114.2-B],≥ 0.0195,0.0007 to 0.018,,≥ 0.009,,
O=C(CCN1CCCCC1)N1CCC(CC(=O)N2CCC([C@H]3c4ncc(Br)cc4CCc4cc(Cl)cc(Br)c43)CC2)CC1 [Compound 7.0-B],,0.0007 to 0.018,0.0145 to 0.0712,≥ 0.009,,
"O=C(CCN1CCCCC1)N1CCC(CC(=O)N2CCC(C3c4ncc(Br)cc4CCc4cc(Cl)cc(Br)c43)CC2)CC1 (single isomer, unassigned; (+)) [Compound 14.2]",,,,,0.002 to 0.0317,0.01 to 0.7
CN(C)CCCC(=O)N1CCC(CC(=O)N2CCC([C@H]3c4ncc(Br)cc4CCc4cc(Cl)cc(Br)c43)CC2)CC1 [Compound 12.2],,,,,0.002 to 0.0317,
CCOC(=O)CC(=O)N1CCC(CC(=O)N2CCC([C@H]3c4ncc(Br)cc4CCc4cc(Cl)cc(Br)c43)CC2)CC1 [Compound 8.0-B],,0.0007 to 0.018,,,,
COC(=O)CCCC(=O)N1CCC(CC(=O)N2CCC(C3c4ncc(Br)cc4CCc4cc(Cl)cc(Br)c43)CC2)CC1 (stereo not shown) [Compound 15.1],,,,,0.002 to 0.0317,0.01 to 0.7
CS(=O)(=O)NCC(=O)N1CCC(CC(=O)N2CCC([C@H]3c4ncc(Br)cc4CCc4cc(Cl)cc(Br)c43)CC2)CC1 [Compound 11.0],,,,,0.002 to 0.0317,0.01 to 0.7
O=C(CC1CCN(C(=O)Cn2cnc(-c3ccccc3)c2)CC1)N1CCC([C@H]2c3ncc(Br)cc3CCc3cc(Cl)cc(Br)c32)CC1 [Compound 20.0-B],,0.0007 to 0.018,,,,
CCOC(CC(=O)N1CCC(CC(=O)N2CCC([C@H]3c4ncc(Br)cc4CCc4cc(Cl)cc(Br)c43)CC2)CC1)OCC [Compound 76.0-B],,0.0007 to 0.018,,,,
O=C(CC1CCN(C(=O)CC2CCCCO2)CC1)N1CCC([C@H]2c3ncc(Br)cc3CCc3cc(Cl)cc(Br)c32)CC1 (stereo partly shown) [Compound 114.3-B],,0.0007 to 0.018,,≥ 0.009,,
CC(C)(C)OC(=O)N[C@@H](Cc1ccccc1)C(=O)N1CCC(CC(=O)N2CCC([C@H]3c4ncc(Br)cc4CCc4cc(Cl)cc(Br)c43)CC2)CC1 [Compound 5.0],,,,,0.002 to 0.0317,
N[C@@H](Cc1c[nH]cn1)C(=O)N1CCC(CC(=O)N2CCC([C@H]3c4ncc(Br)cc4CCc4cc(Cl)cc(Br)c43)CC2)CC1 [Compound 9.0],,,0.0145 to 0.0712,,0.002 to 0.0317,
CC(C)(C)OC(=O)NCC(=O)N1CCC(CC(=O)N2CCC([C@H]3c4ncc(Br)cc4CCc4cc(Cl)cc(Br)c43)CC2)CC1 [Compound 2.0],,,0.0145 to 0.0712,,0.002 to 0.0317,
COC(NC(=O)CC(=O)N1CCC(CC(=O)N2CCC([C@H]3c4ncc(Br)cc4CCc4cc(Cl)cc(Br)c43)CC2)CC1)C(C)C (stereo partly shown) [Compound 51.0-B],,0.0007 to 0.018,,≥ 0.009,,

# The next lines start with results.
IC50 (Human tumor cells) [µM],"IC50 [1, 2] [µM]","IC50 [1, 4] [µM]",SMILES,IC50 (COS Cell; read-out: Cos Cell) [µM],"IC50 [1, 3] [µM]",IC50 (COS Cell; read-out: Cos Cell IC50) [µM]
≥ 0.0195,,0.0145 to 0.0712,O=C(CC1CCN(C(=O)[C@@H]2CCCN2)CC1)N1CCC([C@H]2c3ncc(Br)cc3CCc3cc(Cl)cc(Br)c32)CC1 [Compound 10.0],,0.002 to 0.0317,0.01 to 0.7
≥ 0.0195,,,NCC(=O)N1CCC(CC(=O)N2CCC([C@H]3c4ncc(Br)cc4CCc4cc(Cl)cc(Br)c43)CC2)CC1 [Compound 16.0],≥ 0.009,,
,,0.0145 to 0.0712,CC(C)(C)OC(=O)N[C@@H](Cc1c[nH]cn1)C(=O)N1CCC(CC(=O)N2CCC([C@H]3c4ncc(Br)cc4CCc4cc(Cl)cc(Br)c43)CC2)CC1 [Compound 6.0],≥ 0.009,0.002 to 0.0317,0.01 to 0.7
,,0.0145 to 0.0712,CC(C)(C)OC(=O)N1CCC[C@H]1C(=O)N1CCC(CC(=O)N2CCC([C@H]3c4ncc(Br)cc4CCc4cc(Cl)cc(Br)c43)CC2)CC1 [Compound 7.0],,0.002 to 0.0317,0.01 to 0.7
,,0.0145 to 0.0712,N[C@@H](Cc1ccccc1)C(=O)N1CCC(CC(=O)N2CCC([C@H]3c4ncc(Br)cc4CCc4cc(Cl)cc(Br)c43)CC2)CC1 [Compound 8.0],,0.002 to 0.0317,0.01 to 0.7
